Entries after “also recorded” stand apart in the source; their conditions may differ. Where two headings read alike, the source gives them in different places. Square brackets hold non-standard residues; d marks the D form. Peptide text beside a SMILES is read from it. αMeP = C[C@@]1(C(=O)O)CCCN1
Assays:
[1] = tested on: patients with Rett syndrome; assay: CGI-I exposure-response model; parameters: species or system human; conditions: refined population PK and E-R models
Experimental: Exposure-response analyses of the CGI-I scores were performed on data from patients with Rett syndrome with available trofinetide exposure estimates, plus placebo patients. All of the patients included in this analysis had at least 1 CGI-I score measured after trofinetide or placebo dosing. Data from 52 adult patients with Rett syndrome and 81 pediatric patients with Rett syndrome were pooled for this analysis.
The endpoints used for E-R efficacy modeling include CGI-I scores from two clinical studies and RSBQ scores from one clinical study. The CGI-I scores were measured on Days 5, 14, 17, and 26 and CGI-I scores were measured on Days 21, 28, 42, and 54. All patients received placebo for the first 14 days, so Day 14 was treated as the “true baseline” for trofinetide treatment. The RSBQ scores were collected on Days 14, 28, 42 and 54.
The overall procedures followed for the development of the E-R models for CGI-I and RSBQ scores were: 1) generation of individual estimates of exposure based on the population PK model; 2) exploratory data analysis; 3) base structural model development incorporating drug exposure effects; 4) evaluation of covariate effects, 5) final model refinement; and 6) model evaluation. Covariates evaluated in the analysis of efficacy endpoints were age, body weight, and BMI. […]

[2] = cited from earlier work
girls and women with RTT = assay: Phase 2 clinical studies of trofinetide in Rett syndrome (efficacy, tolerability); assay type: in vivo, human
Experimental: Rett syndrome is a devastating disorder for which there is as yet no treatment beyond symptomatic care resulting in a great unmet medical need. […] Exposure-response analyses of RSBQ scores were performed on data from pediatric patients with Rett syndrome with available trofinetide exposure estimates, plus placebo patients. All of the patients included in this analysis had at least 1 RSBQ score measured after trofinetide or placebo dosing. The RSBQ E-R analysis dataset included only the 81 pediatric patients with Rett syndrome. The endpoints used for E-R efficacy modeling include CGI-I scores from two clinical studies and RSBQ scores from one clinical study. The CGI-I scores were measured on Days 5, 14, 17, and 26 and CGI-I scores were measured on Days 21, 28, 42, and 54. All patients received placebo for the first 14 days, so Day 14 was treated as the “true baseline” for trofinetide treatment. The RSBQ scores were collected on Days 14, 28, 42 and 54.

clinical = conditions: human, in vivo
Experimental: These pharmacokinetic results are in agreement with the data obtained previously in healthy subjects and in adolescent and adult RTT patients.
Therefore, the upper levels of exposure in the 200 mg/kg BID dose level were considered to be effective and thus an appropriate target exposure level. Thus, dosing strategies were developed with the aim of providing a minimal target exposure of 800 μg/mL·h, corresponding approximately to the 90-100% AUC quantile of exposure (AUC0-12) observed in the children/adolescents study for the nominal dose of 200 mg/kg BID. With weight-banding, a greater proportion of subjects is expected to achieve the target drug exposure.

[3] = Population pharmacokinetic model from 9 clinical studies; assay type: in vivo, human; conditions: final population PK model, population mean
Source text: Data for the population PK model development of trofinetide came from 5 Phase 1 studies and 4 Phase 2 studies, including patients with Rett syndrome and other diseases. A total of 3058 trofinetide concentration records collected in 290 subjects were available for potential use in the analysis. A blend of full-profile and sparse data from 94 healthy volunteers, 93 patients with Rett syndrome (adult and pediatric), 103 patients with other diseases was available for this analysis.
Key steps for the development of the trofinetide population PK model were: 1) exploratory data analysis; 2) base structural model development via application, re-estimation, and refinement of a population PK model using pooled data from 9 clinical studies; 3) evaluation of covariate effects using forward selection; 4) full multivariable model evaluation: 5) backward elimination of covariates; 6) final model refinement; and 7) model evaluation. The continuous covariates evaluated included age, body weight, body mass index (BMI), estimated glomerular filtration rate, total bilirubin, alanine aminotransferase, and aspartate aminotransferase. The only categorical covariate evaluated was a combination of sex and disease state (SEXDS), where: SEXDS=0 for male healthy volunteers, SEXDS=1 for female healthy volunteers, SEXDS=2 for patients with Rett (female only), SEXDS=3 for patients with other disease A (male only), SEXDS=4 for male patients with other disease B, and SEXDS=5 for female patients with other disease B. The covariate analysis used a standard forward selection-backward elimination method to identify statistically significant (α=0.001) predictors of PK variability that also explained a sufficient proportion of interindividual variability (IIV) for the respective PK parameter upon which they were tested (that is, reducing IV by ≥5%). The final PK model was validated using a simulation-based, prediction-corrected visual predictive check (pcVPC) methodology to assess concordance between the model-based simulated data and the observed data.
A total of 2759 trofinetide plasma concentrations in 281 subjects were used in the development of the population PK model. The analysis dataset comprised subjects with a median (range) age of 22 (5 to 64) years and a median (range) body weight of 65.6 (15.1 to 139.6) kg, with 52.8% of the analysis population being male and 47.2% female.
The final population PK model for trofinetide was a 2-compartment model with first-order absorption, linear elimination, and 2 separate exponential error models for healthy volunteers and patients. The model included separate bioavailability terms for oral dosing (relative bioavailability [F1]) and dosing via gastric tube (F1G). Interindividual variability was estimated for first-order absorption (ka), clearance (CL), central volume of distribution (Vc), peripheral volume of distribution (Vp), and intercompartmental clearance (Q) using exponential error models.
A total of 4 covariate-parameter relationships were included in the final population PK model. […] Therefore, the final PK model included body weight as a significant predictor of both CL (as a power function) and Vc (as a power function), and SEXDS as a significant predictor of both CL (as a proportional function) and Vc (as a proportional function).

[4] = following oral administration; cited from earlier work
MeCP2 mutant mice = MeCP2 mutant mice (Tropea et al. 2009); cited from earlier work
[5] = tested on: children with Rett syndrome 2 to 10 years of age; conditions: Phase 2 trial (O'Leary et al. 2018); cited from earlier work
[6] = 50 mg/kg BID, pediatric RTT patients
[7] = 100 mg/kg BID, pediatric RTT patients
[8] = 200 mg/kg BID, pediatric RTT patients

Compound: C[C@@]1(C(=O)N[C@@H](CCC(=O)O)C(=O)O)CCCN1C(=O)CN [trofinetide, (2S)-2-[[(2S)-1-(2-aminoacetyl)-2-methylpyrrolidine-2-carbonyl]amino]pentanedioic acid] (H-Gly-[αMeP]-Glu-OH)
- association of higher trofinetide exposure with improvement in Rett syndrome (CGI-I and RSBQ scores) compared to placebo [1]: greater improvement
- median AUC(0-12ss) [2, 6]: 139.4 µg·h/mL
- median Cmax [2, 6]: 17.7 µg/mL
- median AUC(0-12ss) [2, 7]: 338.6 µg·h/mL
- median Cmax [2, 7]: 52.6 µg/mL
- median AUC(0-12ss) [2, 8]: 505.1 µg·h/mL
- median Cmax [2, 8]: 82.2 µg/mL
- accumulation, metabolic inhibition, or induction during treatment ([2]; Phase 2 studies): no accumulation, metabolic inhibition, or induction
- pharmacokinetics across the dose range tested ([2]; pediatric RTT patients): linear pharmacokinetics
- clinical efficacy versus placebo (girls and women with RTT; 200 mg/kg BID, Phase 2): evidence of clinical efficacy; also recorded: benefit compared to placebo
- median percent change in RSBQ scores from baseline (girls and women with RTT; 200 mg/kg twice daily (BID), over 54 days, pediatric patients with Rett syndrome): −14.4%
- PK/PD relationship (exposure versus RSBQ, RTT-DSC, CGI-I) (girls and women with RTT; exploratory analyses, Phase 2): positive PK/PD relationship
- tolerability (girls and women with RTT; two studies in girls and women with RTT): well tolerated
- effect of body weight on clearance and central volume of distribution (clinical): significant effect
- AUC(0-t) (clinical; 200 mg/kg): ≥ 790 µg·h/mL
- bioavailability ([3]; both sexes, human, plasma, other: gastric tube, read-out: F1G: Gastric Tube Bioavailability): 84.7%
- bioavailability ([3]; both sexes, human, plasma, po, read-out: F1: Oral Bioavailability): 77%
- clearance ([3]; both sexes, human, plasma, read-out: CL: Central Clearance (converted)): 192 mL/min
- Q: Distribution Clearance [3]: 1.02 L/h
- Vc: Central Volume [3]: 22.2 L
- Vc: Exponent of (WTKG/65) for Vc [3]: 0.770
- Vc: Proportional Shift in Vc for Rett = 1 [3]: −0.562
- Vc: Proportional Shift in Vc for disease B = 1 [3]: −0.374
- Vp: Peripheral Volume [3]: 53.0 L
- ka: First-Order Absorption Rate Constant [3]: 0.195 h⁻¹
- blood-brain barrier passage [4]: crosses the blood-brain barrier

Compound: glycine-proline-glutamate [GPE]
- effect on Rett-like symptoms (MeCP2 mutant mice): reversed Rett-like symptoms

Compound: mecasermin: recombinant human IGF-1, a compound related to trofinetide
- CSBS-DP-IT, active treatment group compared to placebo [5]: evidence of benefit
